Measured values taken from US9034792B2, “Antifungal compositions” (DSM IP ASSETS B.V., priority 2011, dated 2015).
Where “and” joins values, the source holds several entries; their conditions need not be identical. Identical values can stand only once.

Tests used:
Assay type in all cases: in vivo
Penicillium italicum = test: Treatment of wounded mandarins inoculated with Penicillium italicum; details: 20° C., 250 ppm natamycin
Method: Ten fresh, organic mandarins were used per treatment. The peel of each mandarin was wounded once using a cork borer according to the method described by de Lapeyre de Bellaire and Dubois (1987). Subsequently, each wound was inoculated with 10 μl of a Penicillium italicum suspension containing 1×10^4 of spores/ml. […] The pH of the compositions was 4. A composition without natamycin or fluoxastrobin was used as control.
(§1) The treated mandarins were incubated in a closed box in the dark at 20° C. and assessed on mould growth after 10, 15, 19, 22 and 27 days of incubation. The antifungal activity (in %) of the individual active ingredients was determined by calculating the reduction in mould growth observed on the mandarins treated with the antifungal composition in comparison to the mould growth on the mandarins treated with the control composition. The expected antifungal activity (E in %) of the combined antifungal composition comprising both active ingredients was calculated according to the Colby equation (Colby, 1967): E=X+Y−[(X·Y)/100] wherein X and Y are the observed antifungal activities (in %) of the individual active ingredients X and Y, respectively. If the observed antifungal activity (O in %) of the combination exceeds the expected antifungal activity (E in %) of the combination and the synergy factor O/E is thus >1.0, the combined application of the active ingredients leads to a synergistic antifungal effect.
A composition without natamycin or trifloxystrobin was used as control. The antifungal activity (in %) of the individual and combined active ingredients on mandarins was assessed after 8, 10 and 19 days of incubation according to the method described in Example 9.

Botrytis cinerea = test: Treatment of wounded strawberries inoculated with Botrytis cinerea; details: 20° C.
Method: Twelve fresh, organic strawberries were used per treatment. Each strawberry was wounded with a 0.5 mm long cut and each wound was inoculated with 10 μl of a Botrytis cinerea suspension containing 1×10^5 of spores/ml. […] The antifungal composition also comprised 1.00% (w/w) methylhydroxyethylcellulose (MHEC), 0.40% (w/w) xanthan gum, 0.20% (w/w) anti-foaming agent, 0.30% (w/w) citric acid, 0.39% (w/w) lactic acid and 0.11% (w/w) potassium sorbate. The pH of the compositions was 4.
as §1, with “strawberries” for “mandarins”, “4, 5, 7” for “10, 15, 19, 22”, “8” for “27”, “The antifungal activity (in %) of the individual active ingredients was determined by calculating the reduction in mould growth observed on the mandarins treated with the antifungal composition in comparison to the mould growth on the mandarins treated with the control composition.” left out, “effect. […]” for “effect.”

Fusarium proliferatum = test: Treatment of wounded bananas inoculated with Fusarium proliferatum; details: 20° C.
Method: Four organic, unripe (green) bananas were used per treatment. The peel of each banana was wounded thrice using a cork borer according to the method described by de Lapeyre de Bellaire and Dubois (1987). Subsequently, each wound was inoculated with 15 μl of a Fusarium proliferatum suspension containing 1×10^5 of spores/ml. […] In addition, the antifungal compositions comprised 1.00% (w/w) methylhydroxyethylcellulose (MHEC), 0.40% (w/w) xanthan gum, 0.20% (w/w) anti-foaming agent, 0.30% (w/w) citric acid, 0.39% (w/w) lactic acid and 0.11% (w/w) potassium sorbate. The pH of the compositions was 4. […] The treated, unripe bananas were incubated in a closed box in the dark at 20° C. and a relative air humidity of 95%, which was obtained in the presence of a saturated Na2HPO4 aqueous solution. During the first 10 days of incubation, a ripe (yellow) banana was included in the closed box to elevate the ethylene gas level and thus induce ripening of the treated, unripe bananas.
The expected antifungal activity (E in %) of the combined antifungal composition comprising both active ingredients was calculated according to the Colby equation (Colby, 1967): E=X+Y−[(X·Y)/100] wherein X and Y are the observed antifungal activities (in %) of the individual active ingredients X and Y, respectively. If the observed antifungal activity (O in %) of the combination exceeds the expected antifungal activity (E in %) of the combination and the synergy factor O/E is thus >1.0, the combined application of the active ingredients leads to a synergistic antifungal effect.
The degree of mould growth on the banana wounds was assessed according to the two methods described in Example 3.

[1] = 8 days, 400 ppm trifloxystrobin or both
[2] = 10 days, 400 ppm trifloxystrobin or both
[3] = 19 days, 400 ppm trifloxystrobin or both
[4] = 3 days, 50 ppm natamycin, 250 ppm trifloxystrobin or both
[5] = 5 days, 50 ppm natamycin, 250 ppm trifloxystrobin or both
[6] = 5 days, 250 ppm natamycin, 500 ppm trifloxystrobin or both
[7] = 5 days, 500 ppm natamycin, 1000 ppm trifloxystrobin or both
[8] = 7 days, 250 ppm natamycin, 500 ppm trifloxystrobin or both
[9] = 7 days, 500 ppm natamycin, 1000 ppm trifloxystrobin or both
[10] = 8 days, 250 ppm natamycin, 500 ppm trifloxystrobin or both
[11] = 8 days, 500 ppm natamycin, 1000 ppm trifloxystrobin or both
[12] = 9 days, 250 ppm natamycin, 500 ppm trifloxystrobin or both
[13] = 27 days, 500 ppm natamycin, 1000 ppm trifloxystrobin or both
[14] = 10 days, 500 ppm fluoxastrobin or both
[15] = 15 days, 500 ppm fluoxastrobin or both
[16] = 19 days, 500 ppm fluoxastrobin or both
[17] = 22 days, 500 ppm fluoxastrobin or both
[18] = 27 days, 500 ppm fluoxastrobin or both
[19] = 21 days, 500 ppm natamycin, 1000 ppm fluoxastrobin or both
[20] = 27 days, 250 ppm natamycin, 500 ppm fluoxastrobin or both
[21] = 27 days, 500 ppm natamycin, 1000 ppm fluoxastrobin or both

| Compound | Observed antifungal activity O (%) (Penicillium italicum; [1]) | Observed antifungal activity O (%) (Penicillium italicum; [2]) | Observed antifungal activity O (%) (Penicillium italicum; [3]) | Observed antifungal activity O (%) (Botrytis cinerea; [4]) | Observed antifungal activity O (%) (Botrytis cinerea; [5]) | Number of moulded strawberries/total number of 12 strawberries (Botrytis cinerea; [6]) | Number of moulded strawberries/total number of 12 strawberries (Botrytis cinerea; [7]) | Observed antifungal activity O (%) (Botrytis cinerea; [7]) | Observed antifungal activity O (%) (Botrytis cinerea; [8]) | Observed antifungal activity O (%) (Botrytis cinerea; [9]) | Observed antifungal activity O (%) (Botrytis cinerea; [10]) | Observed antifungal activity O (%) (Botrytis cinerea; [11]) | Observed antifungal activity O (%) (Botrytis cinerea; [12]) | Number of moulded wounds/total number of 12 wounds (Fusarium proliferatum; [13]) | Observed antifungal activity O (%) (Fusarium proliferatum; [13]) | Observed antifungal activity O (%) (Penicillium italicum; [14]) | Observed antifungal activity O (%) (Penicillium italicum; [15]) | Observed antifungal activity O (%) (Penicillium italicum; [16]) | Observed antifungal activity O (%) (Penicillium italicum; [17]) | Observed antifungal activity O (%) (Penicillium italicum; [18]) | also measured |
| --- | --- | --- | --- | --- | --- | --- | --- | --- | --- | --- | --- | --- | --- | --- | --- | --- | --- | --- | --- | --- | --- |
| CON=C(C(=O)OC)c1ccccc1CON=C(C)c1cccc(C(F)(F)F)c1 [Trifloxystrobin, trifloxystrobin] | 61% | 42% | 0% | 50% | 7% | 12 and 12/12 | 12 and 12/12 | 0% | 0% | 6% | 0% | 6% | 0% | 10 and 10/12 | 75% |  |  |  |  |  |  |
| natamycin | 83% | 54% | 5% | 64% | 17% | 12 and 12/12 | 12 and 12/12 | 31% | 10% | 13% | 2% | 0% | 0% | 12 and 12/12 | 63% | 54% | 19% | 5% | 5% | 5% | Number of moulded wounds/total number of 12 wounds (Fusarium proliferatum; [19]): 6 and 6/12; Observed antifungal activity O (%) (Fusarium proliferatum; [19]): 78%; Observed antifungal activity O (%) (Fusarium proliferatum; [20]): 4%; Number of moulded wounds/total number of 12 wounds (Fusarium proliferatum; [21]): 12 and 12/12; Observed antifungal activity O (%) (Fusarium proliferatum; [21]): 63% |
| CO/N=C(/C1=NOCCO1)c1ccccc1Oc1ncnc(Oc2ccccc2Cl)c1F [Fluoxastrobin, fluoxastrobin] |  |  |  |  |  |  |  |  |  |  |  |  |  |  |  | 28% | 24% | 6% | 4% | 0% | Number of moulded wounds/total number of 12 wounds (Fusarium proliferatum; [19]): 10 and 10/12; Observed antifungal activity O (%) (Fusarium proliferatum; [19]): 42%; Observed antifungal activity O (%) (Fusarium proliferatum; [20]): 31%; Number of moulded wounds/total number of 12 wounds (Fusarium proliferatum; [21]): 12 and 12/12; Observed antifungal activity O (%) (Fusarium proliferatum; [21]): 7% |
